Assay results: patent publication US10179770B2, “Quinolines derivatives as novel anticancer agents” (GENOSCIENCE PHARMA, priority 2013, dated 2019)

How the values were obtained:
HL60 = experiment: CellTiter-Glo cell viability assay (example 57); type: cell-based; conditions: Homo sapiens, HL-60; HL60 (Leukemia); Cell Titer-Glo; 72 h
Protocol: (§1) The human breast cancer cell line SkBr3 and the human metastatic prostate carcinoma cell line LnCAP were cultured in Dulbecco's modified Eagle's medium (DMEM) supplemented with 10% fetal bovine serum (FBS) and 0.1% sodium pyruvate. The human myelocytic cell line U937 and NB4 were maintained in RPMI medium 1640 1× (Gibco 21875-034) supplemented with 10 % Fetal Bovine Serum (FBS, Eurobio S39130-0808) Kasumi and SKM-1 were maintained in RPMI medium 1640 1× (Gibco 21875-034) supplemented with 20 % Fetal Bovine Serum (FBS, Eurobio S39130-0808), HL60 was maintained in Iscove's modified Dulbecco's medium 1× (IMDM, Gibco 21890) supplemented with 20% Fetal Bovine Serum (FBS, Eurobio S39130-0808), cell line was maintained in MEM alpha medium (Gibco 22561-021) supplemented with 10% FBS at 37° C. with 5% CO2. Cell outgrowth was measured using the CellTiter-Glo luminescent cell viability assay as described by the manufacturer (Promega, Ref G7571 Madison, Wis., USA) using a FLUOstar optima luminometer (BMG Labtech, Ortenberg, Germany).
(§2) Briefly, for adherent cells, 10^4 cells were plated onto 96-well plates (white with clear bottom (3610, Corning Costar) in 100 μL of media per well and were allowed to grow overnight before the assay. For cells growing in suspension, 10^4 cells were plated onto 96-well plates immediately before the assay. […] Vehicle (DMSO) was used as a control, and all compounds were tested in a constant percentage of DMSO (1%). After addition of 50 μL of CellTiter GLO, luminescence was measured using a Centro luminometer (Berthold). EC50 values were determined as the dose of compound required to reduce luminescent values to 50% of the signal obtained for untreated cell cultures. All experiments were done in duplicate and repeated two independent times.

KG-1 = experiment: CellTiter-Glo cell viability assay (example 57); type: cell-based; conditions: Homo sapiens; KG-1 (Leukemia); Cell Titer-Glo; 72 h
Protocol: as §1, §2

Kasumi-1 = experiment: CellTiter-Glo cell viability assay (example 57); type: cell-based; conditions: Homo sapiens; Kasumi-1 (Leukemia); Cell Titer-Glo; 72 h
Protocol: as §1, §2

MOLM-14 = experiment: CellTiter-Glo cell viability assay (example 57); type: cell-based; conditions: Homo sapiens; MOLM-14 (Leukemia); Cell Titer-Glo; 72 h
Protocol: as §1, §2

NB4 = experiment: CellTiter-Glo cell viability assay (example 57); type: cell-based; conditions: Homo sapiens, NB-4; NB4 (Leukemia); Cell Titer-Glo; 72 h
Protocol: as §1, §2

SKM-1 = experiment: CellTiter-Glo cell viability assay (example 57); type: cell-based; conditions: Homo sapiens; SKM-1 (Leukemia); Cell Titer-Glo; 72 h
Protocol: as §1, §2

U937 = experiment: CellTiter-Glo cell viability assay (example 57); type: cell-based; conditions: Homo sapiens, U-937; U937 (Leukemia); Cell Titer-Glo; 72 h
Protocol: as §1, §2

MOLM-14 cell line = experiment: Growth inhibition assay of MOLM-14 (CellTiter-Glo, example 63); type: cell-based; conditions: Homo sapiens, 48 h, method of example 63
Protocol: MOLM-14 cell line was cultured in RPMI-1640 Medium supplemented with 10% v/v Fetal Bovine Serum (FBS), 1% Penicillin-Streptomycin and maintained at 37° C. with 5% CO2. 10,000 cells were plated onto 96-well plates immediately before the assay.
Each compound was added at different concentrations (combinations of six concentrations) to each well, and cell cultures were incubated for 48 h. Vehicle (H2O) was used as a control, and all compounds were tested in a constant percentage of vehicle. Cell outgrowth was measured using the CellTiter-Glo luminescent cell viability assay as described by the manufacturer (Promega, Ref G7571 Madison, Wis., USA) using a Centro (Berthold, France) plate reader.
In each experiment, each point represents the average of triplicates in cell culture.
The experimental data are analyzed using a computer program, Graphpad Prism (GraphPad Software, Inc. La Jolla, Calif.) and EC50 values were determined as the dose of compound required to reduce absorbance values to 50% of the signal obtained for vehicle treated cell cultures.

[1] = system: ALDH+ cancer stem cells (CSC) in MOLM-14 cell line; experiment: Aldefluor kit assay, ALDH+ compartment analysis; type: cell-based, human; conditions: for Aldefluor™ positive CSCs (% of control): 72 h; for Aldefluor positive CSCs (% of control): MOLM-14 cell line, 72 h incubation
Excerpt: Analysis of the of aldehyde dehydrogenase (ALDH) compartment and high activity level of aldehyde dehydrogenase activity (ALDH+) was used to detect tumor initiating cells (cancer stem cells, CSC) population. The Aldefluor™ kit assay (StemCell Technologies) allowed to assess the activity of drugs on CSC cells like in aa MOLM-14 acute myeloid leukemia cell line population. The Aldefluor™ kit assay was used according to the procedure described by the manufacturer. Briefly, MOLM-14 cell line was cultured in RPMI-1640 Medium supplemented with 10% v/v Fetal Bovine Serum (FBS), 1% Penicillin-Streptomycin and maintained at 37° C. with 5% CO2. 5·10^5 cells were used in this assay. Each compound was added at different concentrations (see table 13 and 14), and cell cultures were incubated for 72 h. Vehicle (H2O) was used as a control, and all compounds were tested in a constant percentage of vehicle. Cells obtained from cell culture were incubated for 45 minutes at 37° C. with Aldefluor™ buffer assay containing the Bodipy™-aminoacetaldehyde (BAAA), a fluorescent ALDH aldehyde substrate. ALDH converts the fluorescent substrate BAAA to the Bodipy™-aminoacetic acid (BAA) which is retained in the cell. An active efflux inhibitor is present in the Adelfluor™ assay buffer in order to avoid the active efflux from the cell of the substrate product ALDH dependent converted BAA. The fluorescent signal is directly proportional to the ALDH activity in the cells and is measured by flow cytometry. A negative control is used to measure the background fluorescence level. For such purpose, 4-(N,N-diethylamino)-benzaldehyde (DEAB) was used as selective ALDH inhibitor. A viability cell count was performed using LIVE/DEAD® Fixable Far Red Dead Cell Stain Kit (Invitrogen). The experimental data are analyzed using a computer program, Graphpad Prism (GraphPad Software, Inc. La Jolla, Calif.) and EC50 values were determined as the dose of compound required to reduce absorbance values to 50% of the signal obtained for vehicle treated cell cultures.

BxPC-3 = experiment: Cell viability assay, pancreatic cancer cell lines; type: cell-based; conditions: Homo sapiens; BxPC-3 (Pancreas); 48 h
Protocol: MiaPaCa-2, Panc-1 cells were grown in Dulbecco's modified eagle's medium (DMEM) (Gibco) supplemented with 10% fetal bovine serum (FBS), while BxPC-3, Capan-1, Capan-2 cells were grown in Roswell Park Memorial Institute 1640 (RPMI 1640) (Gibco) supplemented with 10% FBS. Gemcitabine (Gemzar) was purchased from Lilly France S.A.S (Suresnes, France). (3-(4,5-dimethylthiazol-2-yl)-2,5diphenyltetrazolium bromide, MTT) was purchased from Sigma-Aldrich.
BxPC-3, MiaPaCa-2, Panc-1 cells were seeded into a 96-well plate at 10,000 10,000 15,000 cells per well respectively, while Capan-1 and Capan-2 cells at 20,000 cells per well and allowed to adhere overnight. Then the culture medium was removed and replaced with fresh media alone as control or containing various concentrations of different compounds. In dose-dependent assay, the cells were treated with compound XIX-3 at the concentration varying from 0.1 μM to 100 μM while the cells being cultured by fresh media alone were used as control. After 48 h treatment, the number of remained viable cells was determined by (3-(4,5-dimethylthiazol-2-yl)-2,5diphenyltetrazolium bromide, MTT) colorimetric assay (see Sigma Aldrich protocol and Riss T. L. et al. Cell Viability Assays in Assay Guidance Manual 2013 ppl.). All experiments were done in duplicate and repeated two independent times.

HepG2 = experiment: CellTiter-Glo cell viability assay (example 57); type: cell-based; conditions: Homo sapiens; HepG2 (Liver); Cell Titer-Glo; 72 h
Protocol: as §1, §2

LNCaP = experiment: CellTiter-Glo cell viability assay (example 57); type: cell-based; conditions: Homo sapiens; LNCaP (Prostate); Cell Titer-Glo; 72 h
Protocol: as §1, §2

SkBr3 = experiment: CellTiter-Glo cell viability assay (example 57); type: cell-based; conditions: Homo sapiens, SK-BR-3; SkBr3 (Breast); Cell Titer-Glo; 72 h
Protocol: as §1, §2

HT29 = experiment: CellTiter-Glo cell viability assay (example 57); type: cell-based; conditions: Homo sapiens, HT-29; HT29 (Colon); Cell Titer-Glo; 72 h
[2] = Encapsulation efficiency of XIX-2 in PLGA-PLGAPEG nanoparticules (HPLC); type: physicochemical
Protocol: According to the general procedure described elsewhere (see for example Kumar, K. et al. J. Controlled Release 2013 (171) pp 208-215 and Danhier, F. et al. Int. J. Pharm. 2010 (392) pp 20-28) a nanoparticule PLGA-PLGAPEG (70/30, w/w) formulation of compound XIX-2 was prepared. Briefly, XIX-2 loaded PLGA (L:G 50:50, Mw 7,000-17,000, acid terminated) and PLGA-PEG (L:G 50:50, 15% of PEG, PLGA Mw 28,000; PEG Mw 5,000) nanoparticles were prepared by O/W emulsion-solvent evaporation technique. 35 mg of PLGA polymer and 15 mg of PLGA-PEG polymer was dissolved in 1 ml of a solution of XIX-2 in dichloromethane (10 mg/ml) and vortexed to obtain a uniform PLGA-PLGAPEG solution. Then, 2 ml of a 1% sodium cholate aqueous solution was added and the resulting biphasic system was sonicated (Branson sonifier, USA) at 70 W for 15 s. This emulsion was added dropwise to 100 ml of a 1% sodium cholate aqueous solution at 37° C. and stirred at 600 rpm for 1 h. The nanoparticle suspension was then washed twice in distilled water by centrifugation (Avanti-JE centrifuge, Beckman coulter, USA) for 60 min at 10,000 t·min^−1 and 4° C. Supernatants were collected to evaluate encapsulation efficiency of XIX-2. Empty nanoparticles were prepared with the same procedure except the addition of XIX-2 during the preparation of the formulation. The particles can be stored in solution at +4° C. or then freeze dried (Labconco, USA) and stored at 4° C. until further use.
Encapsulation efficiency estimated the amount of XIX-2 encapsulated in PLGA-PLGAPEG nanoparticules. Supernatants were used to measure the non-encapsulated XIX-2. Nanoparticules were dissolved in 1 ml of mobile phase to evaluate the encapsulated XIX-2. An HPLC system (Waters Breeze) with a diode array detector and multiple wavelength detector was used for the quantification of XIX-2 in supernatants and nanoparticles. […]
The coefficients of variation (CV) for intra- and inter-assay measurements were within 5%. The encapsulation efficiency of XIX-2 is given by [XIX-2 used−XIX-2 non-encapsulated)/XIX-2 used]×100 and XIX-2 recovery was calculated.

Nc1ccn([C@@H]2O[C@H](CO)[C@@H](O)[C@@H]2O)c(=O)n1 [Cytarabine]
EC50 (HL60): 2000 nM | EC50 (KG-1): 150 nM | EC50 (Kasumi-1): 150 nM | EC50 (MOLM-14): 3000 nM | EC50 (NB4): 20 nM | EC50 (SKM-1): 2000 nM | EC50 (U937): 30 nM | EC50 (MOLM-14 cell line): 1000 nM | Aldefluor™ positive CSCs (% of control) ([1]; MOLM-14, 1 μM): 130 % of control | Aldefluor™ positive CSCs (% of control) ([1]; MOLM-14, 3 μM): 116 % of control | Activity against CSCs in Aldefluor™ assay (proportion of CSCs) ([1]; MOLM-14, dose dependent, Cytarabine up to 3-fold its EC50): not active against CSCs | Aldefluor positive CSCs (% of control) ([1]; 1 μM): 130 % of control | Aldefluor positive CSCs (% of control) ([1]; 3 μM): 116 % of control

Nc1ccn([C@@H]2O[C@H](CO)[C@@H](O)C2(F)F)c(=O)n1 [Gemcitabine, gemcitabine]
EC50 (BxPC-3): 20 nM | EC50 (HepG2): 20 nM | EC50 (LNCaP): 40 nM | EC50 (SkBr3): 200 nM | EC50 (HT29): 200 nM

CCN(CC)C1CCN(C(C)c2cc(-c3ccccc3)nc3ccccc23)CC1 (stereo not drawn) [XIX-2, 2-phenyl-4-{1-[4-(N,N-diethylamino)-piperidin-1-yl]-eth-1-yl}quinoline]
Concentration of XIX-2 in nanoparticules dispersion ([2]; PLGA-PLGAPEG (70/30, w/w) nanoparticules, HPLC): 3210 µM | Loading ([2]; PLGA-PLGAPEG nanoparticules, [XIX-2 encapsulated/PLGA-PLGAPEG used] × 100): 2.5% | Encapsulation efficiency ([2]; PLGA-PLGAPEG nanoparticules; [XIX-2 used − XIX-2 nonencapsulated)/XIX-2 used] × 100): 9.4%
